From US9193755B1, “TFEB variants and uses thereof” (Fondazione Telethon, priority 2011, dated 2015)

Experiments:
long-lived proteins = assay: Degradation of long-lived proteins; type: cell-based; details: autophagy inhibitor added
Method: Sub-confluent cells were incubated with L-U^14C-serine for 20 h and chased for 1 h with cold media to degrade short-lived proteins. Subsequently cells were incubated with either normal media or starvation media (eventually in the presence of 3-MA) for 4 h. The rate of long-lived protein degradation was calculated from the ratio of soluble radioactivity in the media to that insoluble in the acid-precipitable cell pellet.

TFEB = TFEB nuclear translocation in starved / re-stimulated HeLa cells (nuclear/cytosolic fractionation, immunofluorescence); type: cell-based, human; details: for nuclear translocation of exogenously expressed TFEB: HeLa and HEK-293T cells transfected with TFEB-3xFLAG, treated overnight; for TFEB nuclear translocation compared to starved media alone: EBSS media supplemented with the factor
Method: Cells were seeded at 50% of confluence in 6 well dishes and serum starved overnight (ON). Normal medium was added the following day either in presence of DMSO or kinase inhibitors. Subcellular fractionation was carried out as previously reported.

mTORC1 = mTORC1 activity by level of p-P70S6K (immunoblotting); type: cell-based, human; details: HeLa cells treated overnight
Method: Cells were lysed with M-PER buffer (Thermo) containing protease and phosphatase inhibitors (Sigma); nuclear/cytosolic fractions were isolated as above described. […] Immunoblotting analysis was performed by transferring the protein onto a nitrocellulose membrane with an I-Blot (Invitrogen). The membrane was blocked with 5% non-fat milk in TBS-T buffer (TBS containing 0.05% Tween-20) and incubated with primary antibodies anti-FLAG and anti-TUBULIN (Sigma; 1:2000), anti-H3 (Cell Signaling; 1:10 000) at room temperature for 2 h whereas the following antibodies were incubated ON in 5% BSA: anti-TFEB (My Biosource; 1:1000), anti-P TFEB (1:1000) ERK1/2, p-ERK1/2, p-P70S6K, P70S6K (Cell Signaling; 1:1000). The membrane was washed three times with TBS-T buffer and incubated with alkaline phosphatase-conjugated IgG (Promega; 0.2 mg/ml) at room temperature for 1 h. The membrane was washed three times with TBS buffer and the expressed proteins were visualized by adding 10 ml Western Blue Stabilized Substrate (Promega).

primary hepatocytes = details: for upregulation / transcriptional response of TFEB target genes: hepatocytes from TFEB conditional knockout mice; for levels of P-ERK / mTOR as measured by the level of p-S6K: primary hepatocytes
TFEB S142 = TFEB S142 phosphorylation with p-S142 phosphospecific antibody; type: cell-based, human; details: starved cells supplemented with normal media
Excerpt: The mouse anti-TFEB monoclonal antibody was purchased from My Biosource catalogue No. MBS120432. To generate anti-pS142 specific antibodies, rabbits were immunized with the following peptide coupled to KLH: AGNSAPN{pSer}[…]. Following the fourth immunization, rabbits were sacrificed and the serum was collected. Non-phosphospecific antibodies were depleted from the serum by circulation through a column containing the non-phosphorylated antigene. The phosphospecific antibodies were subsequently purified using a column containing the phosphorylated peptide.
Cells were lysed with M-PER buffer (Thermo) containing protease and phosphatase inhibitors (Sigma); nuclear/cytosolic fractions were isolated as above described. Proteins were separated by SDS-PAGE (Invitrogen; reduced NuPAGE 4-12% Bis-tris Gel, MES SDS buffer). If needed, the gel was stained using 20 ml Imperial Protein Stain (Thermo Fisher) at room temperature for 1 h and de-stained with water. Immunoblotting analysis was performed by transferring the protein onto a nitrocellulose membrane with an I-Blot (Invitrogen). […]

mTOR = mTOR (Homo sapiens, UniProt P42345); details: recent data (41, 47, 48); cited from earlier work
[1] = Dissolution of test peptides for in vitro kinase assay; type: physicochemical; details: 1 mM in 50 mM HEPES pH7
Method: TFEB-S-142: aa. o 117-166 of Seq Id No. 2: […] and TFEB-A-142: Seq Id No. 4, corresponding to aa. of 117-166 of Seq Id No. 2 where Ser 142 was substituted with Ala (bold): […] were synthesized by […] corp. The test peptides TFEB-A-142 and TFEB-S-142 were made up to 1 mM in 50 mM HEPES pH7. […] The kinase assay was performed at room temperature for 40 minutes at 200 μM ATP and 100 μM of each peptide, using Millipore's standard radiometric assay. All protein kinases were used at their standard KinaseProfiler™ assay concentration. Following incubation, all assays were stopped by the addition of acid and an aliquot spotted onto P30 and Filtermat A to separate products. All tests were carried out in triplicate, and the usual substrate for each protein kinase included as a control. In Vivo Gene Delivery

## Cn1cnc(N)c2ncnc1-2 [3-methyl adenine, reference compound]
long-lived proteins
  TFEB-induced enhancement of long-lived protein degradation: abolished

## CC/C=C\C=C/C(=O)N/C=C/C[C@H]1C[C@@H](O)[C@@H](C)C/C=C/Cc2cccc(O)c2C(=O)O1 [Salicylihalamide A]
TFEB
  nuclear translocation of exogenously expressed TFEB: induced nuclear translocation
mTORC1
  mTORC1 activity as measured by level of p-P70S6K: inhibited

## CCC(=O)N1CCN(c2ccc(-n3c(=O)ccc4cnc5ccc(-c6cnc7ccccc7c6)cc5c43)cc2C(F)(F)F)CC1 [Torin 1]
Primary hepatocytes
  upregulation / transcriptional response of TFEB target genes: significantly reduced
  levels of P-ERK: unaffected
  mTOR as measured by the level of p-S6K: inhibited mTOR
TFEB; starved cells stimulated with amino-acid rich medium, Torin 1 250 nM, Rapamycin 2.5 μM
  TFEB subcellular localization: massive TFEB nuclear accumulation
TFEB S142
  nutrient-induced S142 phosphorylation: clearly blunted

## Nc1ccc(-c2ccc3ncc4ccc(=O)n(-c5cccc(C(F)(F)F)c5)c4c3c2)cn1 [Torin 2]
mTOR
  mTOR inhibition: completely inhibiting mTOR activity

## N#CC(=C(/N)Sc1ccccc1N)/C(C#N)=C(\N)Sc1ccccc1N [U0126]
TFEB
  TFEB molecular weight shift induced by nutrients: only a partial TFEB molecular weight shift
  TFEB nuclear localization: resulted in TFEB nuclear localization, at level similar to starvation

## CCN(CC)CCCC(C)Nc1ccnc2cc(Cl)ccc12 (stereo not drawn) [chloroquine]
Primary hepatocytes
  upregulation / transcriptional response of TFEB target genes: significantly blunted
  levels of P-ERK: unaffected
  mTOR as measured by the level of p-S6K: inhibited mTOR
Primary hepatocytes; hepatocytes from control mice
  expression of TFEB target genes: upregulated
TFEB
  nuclear translocation of exogenously expressed TFEB: induced nuclear translocation

## EGF: growth factor supplemented to EBSS media (NSDSECPLSHDGYCLHDGVCMYIEALDKYACNCVVGYIGERCQYRDLKWWELR; UniProt P01133 971-1023, looked up)
TFEB
  TFEB nuclear translocation compared to starved media alone: significant inhibition

## LIF: cytokine supplemented to EBSS media
TFEB
  TFEB nuclear translocation compared to starved media alone: Almost no effect

## PPPAASPGVRAGHVLSSSAGNSAPNAPMAMLHIGSNPERELDDVIDNIMR [TFEB-A-142]
[1]
  dissolution: no issue with dissolution

## PPPAASPGVRAGHVLSSSAGNSAPNSPMAMLHIGSNPERELDDVIDNIMR (listed as Homo sapiens) [TFEB-S-142, peptide aa]
[1]
  dissolution: no issue with dissolution

## insulin: growth factor supplemented to EBSS media
TFEB
  TFEB nuclear translocation compared to starved media alone: significant inhibition
